From patent EP0427747B1, “SUBSTITUTED PHENYLACETONITRILES USED TO OVERCOME RESISTANCE TO DRUGS IN ANTI-MALARIAL THERAPY” (priority 1988, dated 1990)
Structures can show the parent of a compound that is named as a salt.

Key:
[1] = in vivo; settings: rat, iv
From the text: Das 3. Modell untersucht ebenfalls am Ganztier die Wirkung der Testsubstanz auf das Herz.
(§1) Angegeben ist jeweils, wieviel größer die Dosis der Testsubstanz sein darf als bei racemischem Verapamil, um den gleichen caridovasculären Effekt auszulösen.
(§2) Der Selektivitätsindex S der Tabelle ist das Produkt dieses Faktors mit dem AEI und beschreibt somit, um wieviel schwächer als beim racemischen Verapamil die cardiovasculären Effekte der Testsubstanz sind, wenn sie in der Resistenzbrechnung von Malariamitteln in equieffizienten Dosen eingesetzt werden.

[2] = in vitro; settings: rat, aortic strip
From the text: (§3) Weiter umfaßt die Tabelle drei praxisübliche Testmodelle auf cardiovasculäre Effekte. Am Gefäßstreifen der Ratte (rat aortic strip) (1. Modell) wird die Dosis bestimmt, die zu einer 50 %igen Relaxation führt, sie ist ein Maß für die gefäßerweiternde und damit blutdrucksenkende Wirkung einer Substanz. Das 2. Modell untersucht die blutdrucksenkende Wirkung am Ganztier (Ratte), bei intravenöser Gabe).
as §1, §2

[3] = system: Gefäßstreifen der Ratte (rat aortic strip); test: in vitro
From the text: as §3, §1, §2

[4] = system: P. yoelii NS; test: Test model II: blood schizontocidal action in infected mice, 4-day treatment; format: in vivo, Plasmodium yoelii ssp; settings: for % Parasitämie: mice, daily dose 10,0 mg/kg test substance plus 0,3 mg/kg Chloroquin, s.c., 4 days, parasitaemia one day after treatment
From the text: Zur Bestätigung und weiteren Differenzierung der resistenzbrechenden Wirkung wurden Mäuse nach dem in Ann. Trop. Med. Parasit., 72, 23 (1978) beschriebenen Modell (vgl. auch Exp. Parasitol. 17, 89 (1965), Anm. Trop. Med. Parasit. 69, 155 (1975) mit parasitär befallenden Erythrocyten beimpft und 1 Tag nach der Injektion an vier aufeinanderfolgenden Tagen behandelt. Einen Tag nach der Behandlung wurde die Parasitämie bestimmt.
Eperythozoon-coccoides-freie, männliche, Schweizer Albino-Mäuse, Gewicht zwischen 18 und 20 g, werden für alle Prüfungen benutzt.
Sie werden in Räumen mit kontrollierter Temperatur (22° + 2°C) in Kunststoffkäfigen zu je 5 Mäusen pro Käfig gehalten.
P. yoelii NS, gewonnen aus P. yoelii N: mäßig resistent gegenüber Chloroquin. Erhaltung durch zyklische Passage durch Anopheles stephensi und unter medikamentöser Belastung in der Maus (60 mg/kg s.c. einmal während der Passage) (für nähere Erläuterung siehe Ann. Trop. Med. Parasit., 72, 23 (1978)).
Männliche Mäuse werden intravenös mit parasität befallenden Erythrozyten (10⁷) vom P. yoelli NS Stamm beimpft. Danach werden die Tiere an vier aufeinanderfolgenden Tagen beginnend am Tag der Infektion einmal täglich behandelt. Die Verbindungen werden mit ®Tween 80 in sterilem, destilliertem Wasser gelöst oder suspendiert und subkutan verabreicht. In Fällen, in denen sich die Zubereitung einer wäßrigen Lösung als äußerst schwierig erweist, wird die Prüfsubstanz zunächst in Dimethylsulfoxid gelöst. Danach werden wäßrige Verdünnungen zum Gebrauch hergestellt. Die Parasitämie wird am Tag nach der letzten Behandlung bestimmt. Die unterdrückung der Parasiten im Vergleich zur unbehandelten Kontrolle, wird mittels Probitanalyse der log-Dosis-Wirkungskurve berechnet.
Mäuse, die mit dem chloroquin-resistenten Plasmodium yoelii ssp infiziert waren, wurden mit Chloroquin über 4 Tage subkutan behandelt, wie unter II.2 beschrieben.
Einen Tag nach der Behandlung wurde die Parasitämie bestimmt und mit der Kontrolle verglichen.
Der AEI (Activity Enhancement Index) ist der Quotient aus der ED₉₀ für Chloroquin alleine und der ED₉₀ für Zusatz von 10 mg/kg Testsubstanz.

[5] = system: humanen Erythrocyten, die mit resistenten Plasmodien (Pl. falciparum) infiziert waren; test: Test model I: radiolabelled hypoxanthine incorporation (microdilution technique), alone and in combination with the antimalarial; format: cell-based; settings: combination with Chloroquine; 1,0 = additivity, <0,5 = synergism
From the text: Alle Substanzen wurden zunächst alleine und dann in Kombination mit dem Antimalaria-Mittel an humanen Erythrocyten, die mit resistenten Plasmodien (Pl. falciparum) infiziert waren, getestet. Der Einbau von radioaktiv markiertem Hypoxanthin diente als Maß für das Wachstum der Parasiten. Nach der Microdilutions-Technik (Antimicrob. Agents Chemotherapy 16,710 (1979)), wurde dabei für die erfindungsgemäßen Substanzen allein keine oder nur eine geringe Hemmung des Hypoxanthin-Einbaus gefunden. In Kombination mit einem Malariamittel wurde dagegen eine deutlich synergistische Hemmung beobachtet. Die Auswertung erfolgte über den FIC-Index (eine mathematische Repräsentation eines Isobologramms). Der Wert 1,0 bedeutet Additivität der Wirkungen, ein Wert <0,5 Synergismus. Für R-Verapamil und Chloroquin erhält man den Wert 0,56. [formula] IC₅₀ = Konzentration der Prüfsubstanz, die eine 50 %ige Hemmung der Parasiten bewirkt. [A] = gemessene IC₅₀ der Substanzu A in Gegenwart einer definierten (z.B. 500 bis 125 000 ng/ml) Menge der Substanz B. [B] = gemessene IC₅₀ der Substanz B in Gegenwart einer definierten (z.B. 500 bis 125 000 ng/ml) Menge der Substanz A. IC50A = IC₅₀ der Substanz A alleine gegeben IC50B = IC₅₀ der Substanz B alleine gegeben.
Die folgenden Werte wurden in der Kombination mit Chloroquine bestimmt.

[6] = in vivo; settings: rat, iv; remark: listed apart in the source
From the text: as §3, §1, §2

[7] = AEI relative to S,R-Verapamil = 1
[8] = Activity Enhancement Index: ED90 of Chloroquin alone divided by ED90 with addition of 10 mg/kg test substance

Row | SMILES | EKG (AV-Block) Ratte i.v. ED [1] | selectivity ratio [1] | selectivity ratio [2] | Ratten Aortenstreifen ED₅₀ [3] | AEI (10 mg/kg) [4, 7] | AEI (10 mg/kg) [4, 8] | FIC-Index [5] | Blutdrucksenkung ED₅₀ [6] | selectivity ratio [6] | % Parasitämie [4]
1 | CC(C)C(C#N)(CCCNCCc1ccccc1)c1ccccc1.Cl (stereo not shown) [Noremopamil, 1,7-Bis-(phenyl)-3-aza-7-cyano-8-methyl-nonan-hydrochlorid] | 4,6 | 6.9 | 4.6 | 2,9 | 1,60x | 4,1 | 0,19 | 4,3 | 6.9 | –
2 | COc1ccc(CCN(C)CCCC(C#N)(c2ccc(OC)c(OC)c2)C(C)C)cc1OC (racemic) [S,R-Verapamil, Verapamil, reference compound] | = 1 | – | – | – | = 1 x | 2,56 | – | – | – | –
3 | CC(C)[C@@](C#N)(CCCN(C)CCc1ccccc1)c1ccccc1 [S-Emopamil, (-)-(S)-1,7-Bis-(phenyl)-3-methylaza-7-cyano-8-methyl-nonan-hydrochlorid] | 2,15 | – | 13.5 | 7,7 | 1,8x | 4,5 | 0,19 | 2,7 | – | 6,7%
4 | COc1ccc(CCN(C)CCCC(C#N)(c2cc(OC)c(OC)c(OC)c2)C(C)C)cc1OC (single isomer, unassigned; (+)) [(+)-Gallopamil, (+)-1-(3,4-Dimethoxyphenyl)-3-methylaza-7-cyan-7-(3,4,5-trimethoxyphenyl)-8-methylnonan-hydrochlorid] | 4,6 | – | 21.6 | 12,6 | 1,7x | 4,4 | 0,53 | 3,4 | – | 8,6%
5 | COc1ccc(CCN(C)CCC[C@](C#N)(c2ccc(OC)c(OC)c2)C(C)C)cc1OC [R-Verapamil, reference compound] | 4,6 | – | 10.2 | – | 1,6x | 4,15 | 0,56 | – | – | 14,2%
